From paper PMC8041284, “Tunable Methacrylamides for Covalent Ligand Directed Release Chemistry” (Journal of the American Chemical Society, 2021) come the findings set out here.

In the first assay the target is BTK (Homo sapiens, UniProt Q06187). As to the kind of experiment: biochemical. Particulars: read-out: BTK inhibition (%).
Sequence of BTK (Q06187 402-655 limits assumed): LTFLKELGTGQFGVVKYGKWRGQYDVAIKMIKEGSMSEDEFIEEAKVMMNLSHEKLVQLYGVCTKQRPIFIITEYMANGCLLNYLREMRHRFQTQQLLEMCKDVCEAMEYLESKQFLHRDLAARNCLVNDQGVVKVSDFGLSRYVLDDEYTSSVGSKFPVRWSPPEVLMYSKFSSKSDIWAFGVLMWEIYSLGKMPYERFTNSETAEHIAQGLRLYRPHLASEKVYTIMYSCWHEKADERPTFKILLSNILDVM
For the molecule `C[C@@]12N[C@@H](Cc3ccccc31)c1ccccc12` [PCM-0086525], the inhibition (in general, the relative decrease from the control value, in per cent) at 10 µM was -25.7%. Still for that read-out and setting: then `O=C(C[S+]([O-])C(c1ccccc1)c1ccccc1)NO` (centres unmarked) [PCM-0216068], with -2.3%.

Staying with this assay, now noted: read-out: BTK inhibition (%), 0.75 uM BTK, […] probe 3l, 15 min preincubation.
As to `C[C@@H](Nc1cc(F)cc(F)c1)c1cc(C(=O)N(C)C)cc2c(=O)cc(N3CCOCC3)oc12` [PCM-0215502], the inhibition at 10 µM was -15.2%. Take `O=C(Nc1ncc(SCCN2CCCC2)s1)[C@]1(c2ccc(S(=O)(=O)C3CC3)cc2)C[C@H]1C1CCCCC1` [PCM-0095206]: the inhibition at 10 µM is -8.6%. In the case of `Cc1cccc(-c2nn3c(c2-c2ccnc4ccc(C(N)=O)cc24)CCC3)n1` [PCM-0095269], the inhibition at 10 µM is 11.7%.

Consider `C[C@@H](O[C@H]1OCCN(Cc2n[nH]c(=O)[nH]2)[C@H]1c1ccc(F)cc1)c1cc(C(F)(F)F)cc(C(F)(F)F)c1` [PCM-0214564], for which the inhibition at 10 µM is -8.3%.

On to `COc1ccc(C[C@H](N)C(=O)N[C@H]2[C@@H](O)[C@H](n3cnc4c(N(C)C)ncnc43)O[C@@H]2CO)cc1` [PCM-0215332], for which the inhibition at 10 µM is -3.1%.

`CC(C)Oc1ccc(-c2cnc3c(-c4ccnc5ccccc45)cnn3c2)cc1` [PCM-0215300]: the inhibition at 10 µM was -1.5%.

In the case of `O=C1NC(=O)[C@@H](c2cn3c4c(cccc24)CCC3)[C@@H]1c1c[nH]c2ccccc12` [PCM-0095697], the inhibition at 10 µM turned out to be 29%.

Take `C/C=C(\C)C(=O)O[C@H]1[C@H](OC(C)=O)[C@@]2(CO)C(CC1(C)C)C1=CCC3[C@@]4(C)CCC(O[C@@H]5O[C@H](C(=O)O)[C@@H](O[C@@H]6O[C@H](CO)[C@@H](O)[C@H](O)[C@H]6O)[C@H](O)[C@H]5O[C@@H]5O[C@H](CO)[C@@H](O)[C@H](O)[C@H]5O)[C@](C)(CO)C4CC[C@@]3(C)[C@]1(C)C[C@H]2O` (some centres unmarked) [PCM-0214843]: the inhibition at 10 µM is 3.4%. On to `Cc1nc(Nc2cnn(C3CCNCC3)c2)nc2c1N(C)C(=O)c1cc3ccccc3cc1N2C` [PCM-0213384], for which the inhibition at 10 µM amounted to 30.3%. Consider `CCOC(=O)[C@H](CCc1ccccc1)N[C@@H](C)C(=O)N1Cc2cc(OC)c(OC)cc2C[C@H]1C(=O)O` [PCM-0095243], for which the inhibition at 10 µM was -6.2%. The same measure, in the same setting: the result for `CC(C)Oc1ccc(-c2nc(-c3cccc4c3CC[C@@H]4NCCO)no2)cc1C#N` [PCM-0215588] reads -5.5%. `C[C@H]1C[C@H]2[C@@H]3CCC4=CC(=O)C=C[C@]4(C)[C@H]3C(=O)C[C@]2(C)[C@@]1(O)C(=O)CO` [PCM-0095139]: the inhibition at 10 µM amounted to 29%.

`Nc1nc(Cl)nc2c1ncn2[C@H]1C[C@H](O)[C@@H](CO)O1` [PCM-0086228]: the inhibition at 10 µM was -16.6%.

Regarding `O=C(Nc1cccc(C(F)(F)F)c1)c1cccc2cc(Oc3cc(CO)ncn3)ccc12` [PCM-0215724], the inhibition at 10 µM is -0.7%. For the molecule `CCc1ccc(/C=C2/SC(=S)NC2=O)cc1` [PCM-0064568], the inhibition at 10 µM is 46.2%. As to `CCOC(=O)c1ccc(O)c(OC)c1` [PCM-0215087], the inhibition at 10 µM was -7.8%. `Cc1ncc(CCCN(C)C)cc1Nc1ncc2c(n1)-c1ccc(C(F)(F)F)cc1NC(=S)C2` [PCM-0214732]: the inhibition at 10 µM was 24.1%.

For the molecule `CCCSc1nc(N[C@@H]2C[C@H]2c2ccc(F)c(F)c2)c2nnn([C@@H]3C[C@H](OCCO)[C@@H](O)[C@H]3O)c2n1` [PCM-0095628], the inhibition at 10 µM is -34.2%.

In the case of `CC(C)(C)c1cc(O)c(C(C)(C)C)cc1O` [PCM-0214931], the inhibition at 10 µM was determined as 26.5%. Regarding `NS(=O)(=O)c1ccc(NC(=S)N2CCN(C/C=C/c3ccccc3)CC2)cc1` [PCM-0215808], the inhibition at 10 µM stood at 2.3%. Turning to `CCN(CCCc1ccccc1)CCCc1ccccc1` [PCM-0085793], the inhibition at 10 µM is -8.6%. On to `O=C(NCCS(=O)(=O)c1ccc(C(F)(F)F)cn1)c1ccc(Cl)cc1` [PCM-0007384], for which the inhibition at 10 µM was 16.6%. Turning to `NC[C@H](CC(=O)O)c1ccc(Cl)cc1` [PCM-0095558], the inhibition at 10 µM was -12.8%. As for `Cc1noc(NS(=O)(=O)c2ccc(N)cc2)c1C` [PCM-0085967], the inhibition at 10 µM was 10.9%.
